Literature values in paper PMC5721631 (BMJ Open Ophthalmology, 2017).

Tested on: adrenal cortisol biosynthesis (CYP11B1)
Settings: single oral administration

SMILES: CC(C)(C(=O)c1cccnc1)c1cccnc1 [Metpyrapone, metyrapone]
- plasma cortisol reduction from baseline: Up to about 80% plasma cortisol reduction from baseline
